Results reported in ChEMBL document CHEMBL1201862, “PubChem BioAssay data set” (2004).
Active and inactive are the calls of the source.

Assays:
[1] = biological target: T1, Beta-2 adrenergic receptor (Homo sapiens, UniProt P07550); assay: Dose response for HTS for Beta-2AR agonists via FAP method from Powderset3.; format: functional
[2] = Luminescence Cell-Based Dose Retest to Confirm Inhibitors of Cancer Stem Cells. [Related pubchem assays (depositor defined):AID2717, AID2721]; format: functional; conditions: Homo sapiens
[3] = biological target: T1, Beta-2 adrenergic receptor; assay: ADRB2 activation measured by internalization – cell-based, FAP fluorogen, flow cytometry, cherry pick 1, dose response (AID 588763); format: functional
[4] = HEK293 Cytotoxicity Assay Measured in Cell-Based System Using Plate Reader - 7071-01_Inhibitor_Dose_CherryPick_Activity_Set2.; format: functional
[5] = test system: HEK293; assay: viability loss in HEK293T cells – cell-based, ATP luminescence, cherry-pick samples, cytotoxicity control, dose response (AID 687005); format: functional; conditions: Homo sapiens;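 further: cells exposed to compound for 48 hours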
[6] = test system: HeLa; assay: viability loss in HeLa cells – cell-based, ATP luminescence, cherry-pick samples, cytotoxicity control, dose response (AID 687004); format: functional; conditions: Homo sapiens
[7] = biological target: T2, Heat shock factor protein 1 (Mus musculus, UniProt P38532); assay: enhancement of HSF1-driven luciferase signal – cell-based, NIH3T3, luminescence, dose retest, confirmation (AID 435004); format: functional;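 further: stress induced by proteasome inhibitor MG132 added 30 min after compound; luciferase reporter driven by HSF1 response element in NIH3T3 cells; actives raise luminescence as potentiators of the MG132 stress response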
T2 sequence (P38532 whole entry): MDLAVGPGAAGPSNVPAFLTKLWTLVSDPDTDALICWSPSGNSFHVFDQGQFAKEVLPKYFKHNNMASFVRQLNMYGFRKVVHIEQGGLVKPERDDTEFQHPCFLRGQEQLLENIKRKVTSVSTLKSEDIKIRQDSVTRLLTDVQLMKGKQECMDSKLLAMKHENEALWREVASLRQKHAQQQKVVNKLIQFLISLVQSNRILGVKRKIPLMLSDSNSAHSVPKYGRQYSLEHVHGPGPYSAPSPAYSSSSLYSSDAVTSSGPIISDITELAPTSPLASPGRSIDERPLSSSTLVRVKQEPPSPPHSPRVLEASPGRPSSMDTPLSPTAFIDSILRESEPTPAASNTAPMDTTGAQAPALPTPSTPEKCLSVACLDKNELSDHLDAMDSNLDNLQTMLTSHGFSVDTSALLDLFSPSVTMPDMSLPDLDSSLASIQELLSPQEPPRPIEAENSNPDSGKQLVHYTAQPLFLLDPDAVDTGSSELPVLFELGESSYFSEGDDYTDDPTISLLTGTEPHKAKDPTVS

[8] = biological target: T3, Probable nicotinate-nucleotide adenylyltransferase (Staphylococcus aureus (strain N315), UniProt P65502); format: functional, Staphylococcus aureus subsp. aureus N315; conditions: read-out: IC50_Mean;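 on IC50 Mean: confirmatory dose-response retesting of NadD inhibitor hits first found in an ultra-high-throughput screen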
[9] = biological target: T3, Probable nicotinate-nucleotide adenylyltransferase; format: functional, Staphylococcus aureus subsp. aureus N315
[10] = biological target: Arf-GAP with SH3 domain, ANK repeat and PH domain-containing protein 1 (Homo sapiens, UniProt Q9ULH1); format: functional;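 further: biochemical fluorescence polarization dose–response screen measuring inhibition of ASAP1; ASAP1 GAP domain stimulating GTP hydrolysis by truncated human ARF1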
[11] = biological target: ADP-ribosylation factor GTPase-activating protein 1 (Rattus norvegicus, UniProt Q62848); assay: Fluorescence polarization-based biochemical high throughput dose response screening assay to identify inhibitors of ADP-ribosylation factor GTPase activating protein 1 (ARFGAP1).; format: functional
[12] = biological target: T4, Tyrosine-protein phosphatase non-receptor type 22 (Homo sapiens, UniProt Q9Y2R2); assay: lymphoid phosphatase LYP inhibitors – biochemical, selectivity assay for STEP inhibitor project, dose response (AID 624241); format: functional
T4 sequence (Q9Y2R2 whole entry): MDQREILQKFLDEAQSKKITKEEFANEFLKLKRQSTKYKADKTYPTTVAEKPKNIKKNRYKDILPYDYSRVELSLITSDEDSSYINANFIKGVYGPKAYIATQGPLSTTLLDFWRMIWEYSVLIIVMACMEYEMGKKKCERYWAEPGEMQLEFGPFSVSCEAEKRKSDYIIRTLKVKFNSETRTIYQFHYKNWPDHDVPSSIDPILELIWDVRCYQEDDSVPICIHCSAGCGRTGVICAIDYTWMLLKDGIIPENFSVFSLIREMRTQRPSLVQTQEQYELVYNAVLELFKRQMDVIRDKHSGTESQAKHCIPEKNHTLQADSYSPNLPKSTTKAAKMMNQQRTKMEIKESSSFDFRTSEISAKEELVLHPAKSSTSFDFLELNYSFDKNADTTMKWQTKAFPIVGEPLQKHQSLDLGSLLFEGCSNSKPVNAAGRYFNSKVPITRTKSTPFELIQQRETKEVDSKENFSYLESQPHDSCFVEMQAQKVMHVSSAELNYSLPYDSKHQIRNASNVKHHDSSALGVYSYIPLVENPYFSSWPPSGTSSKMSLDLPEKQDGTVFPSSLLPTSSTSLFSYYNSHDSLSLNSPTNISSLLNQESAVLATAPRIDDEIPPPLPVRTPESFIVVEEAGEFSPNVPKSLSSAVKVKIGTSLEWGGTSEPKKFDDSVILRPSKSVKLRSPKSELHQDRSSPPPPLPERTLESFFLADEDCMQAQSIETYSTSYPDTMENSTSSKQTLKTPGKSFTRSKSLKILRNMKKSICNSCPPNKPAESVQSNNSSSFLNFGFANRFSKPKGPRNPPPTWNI

[13] = biological target: Tyrosine-protein phosphatase non-receptor type 5 (Homo sapiens, UniProt P54829); assay: PTPN5 enzyme inhibition – biochemical, fluorescence intensity, uHTS hits, confirmation (AID 602372); format: functional; conditions: read-out: IC50_Mean
[14] = biological target: T5, Small ubiquitin-related modifier 1 (Homo sapiens, UniProt P63165); assay: SUMO1 protein interaction blockers, potency – biochemical, fluorescence polarization, uHTS hits, dose response (AID 624382); format: functional; conditions: read-out: IC50_Mean
[15] = biological target: T6, Corticotropin-releasing factor receptor 2/Corticotropin-releasing factor-binding protein (Homo sapiens, UniProt P24387+Q13324); assay: activators of CRF receptor 2 with binding protein – uHTS hits, confirmation (AID 602473); format: functional; conditions: read-out: EC50_Mean
T6 sequence (Q13324 whole entry): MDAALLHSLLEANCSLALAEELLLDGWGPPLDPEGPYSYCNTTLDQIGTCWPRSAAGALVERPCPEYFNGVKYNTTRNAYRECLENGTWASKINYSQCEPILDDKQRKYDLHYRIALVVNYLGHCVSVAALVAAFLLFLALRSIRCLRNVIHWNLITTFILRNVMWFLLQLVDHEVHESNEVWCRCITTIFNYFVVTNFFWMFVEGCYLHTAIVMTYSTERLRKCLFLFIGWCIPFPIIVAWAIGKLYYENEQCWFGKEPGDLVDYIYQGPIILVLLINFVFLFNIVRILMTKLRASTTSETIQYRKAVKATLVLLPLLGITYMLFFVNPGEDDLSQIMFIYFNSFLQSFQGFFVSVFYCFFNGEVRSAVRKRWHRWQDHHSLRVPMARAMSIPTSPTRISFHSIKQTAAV
T6 sequence (P24387 whole entry): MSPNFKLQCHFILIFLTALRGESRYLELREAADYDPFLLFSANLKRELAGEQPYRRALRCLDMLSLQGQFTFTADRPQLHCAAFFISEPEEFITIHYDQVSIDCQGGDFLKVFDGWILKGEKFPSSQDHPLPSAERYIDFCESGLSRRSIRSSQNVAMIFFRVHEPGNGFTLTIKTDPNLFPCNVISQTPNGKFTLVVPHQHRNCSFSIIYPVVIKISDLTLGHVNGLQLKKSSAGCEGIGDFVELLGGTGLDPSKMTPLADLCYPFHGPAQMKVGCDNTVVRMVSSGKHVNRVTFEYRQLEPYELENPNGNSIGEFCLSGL

[16] = biological target: T6, Corticotropin-releasing factor receptor 2/Corticotropin-releasing factor-binding protein; assay: Dose Response confirmation of uHTS hits for small molecule antagonists of the CRF-binding protein and CRF-R2 receptor complex.; format: functional; conditions: read-out: IC50_Mean
[17] = biological target: T5, Small ubiquitin-related modifier 1; assay: SUMO1 protein-protein binding blockers, potency – biochemical, FRET, dose response (AID 624383); format: functional; conditions: read-out: IC50_Mean
[18] = biological target: Dual specificity protein phosphatase 3 (Homo sapiens, UniProt P51452); assay: VHR phosphatase inhibition, dose response, selectivity assay for STEP inhibitor project, biochemical (AID 602374); format: functional; conditions: read-out: IC50_Mean
[19] = biological target: Tyrosine-protein phosphatase non-receptor type 11 (Homo sapiens, UniProt Q06124); assay: PTPN11 enzyme inhibitors – biochemical, selectivity assay for STEP inhibitor project, dose response (AID 602367); format: functional; conditions: read-out: IC50_Mean
[20] = biological target: T7, Carboxy-terminal domain RNA polymerase II polypeptide A small phosphatase 1 (Homo sapiens, UniProt Q9GZU7); assay: CTDSP1 inhibitors, concentration-response, biochemical, absorbance readout, ultra-high-throughput screen actives (AID 540297); format: functional
T7 sequence (Q9GZU7 whole entry): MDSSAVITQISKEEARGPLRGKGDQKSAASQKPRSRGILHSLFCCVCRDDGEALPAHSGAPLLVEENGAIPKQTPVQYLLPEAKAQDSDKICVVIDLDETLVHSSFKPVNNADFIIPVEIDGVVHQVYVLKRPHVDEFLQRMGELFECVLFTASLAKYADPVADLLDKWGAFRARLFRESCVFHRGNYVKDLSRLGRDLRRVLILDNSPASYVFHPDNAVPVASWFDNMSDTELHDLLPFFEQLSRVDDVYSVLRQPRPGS

T3 sequence (P65502 whole entry): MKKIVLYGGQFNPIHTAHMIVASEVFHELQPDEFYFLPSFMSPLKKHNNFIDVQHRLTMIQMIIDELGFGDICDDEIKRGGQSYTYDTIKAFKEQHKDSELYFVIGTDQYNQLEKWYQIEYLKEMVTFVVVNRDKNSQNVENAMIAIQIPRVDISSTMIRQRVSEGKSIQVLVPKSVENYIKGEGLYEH
T1 sequence (P07550 whole entry): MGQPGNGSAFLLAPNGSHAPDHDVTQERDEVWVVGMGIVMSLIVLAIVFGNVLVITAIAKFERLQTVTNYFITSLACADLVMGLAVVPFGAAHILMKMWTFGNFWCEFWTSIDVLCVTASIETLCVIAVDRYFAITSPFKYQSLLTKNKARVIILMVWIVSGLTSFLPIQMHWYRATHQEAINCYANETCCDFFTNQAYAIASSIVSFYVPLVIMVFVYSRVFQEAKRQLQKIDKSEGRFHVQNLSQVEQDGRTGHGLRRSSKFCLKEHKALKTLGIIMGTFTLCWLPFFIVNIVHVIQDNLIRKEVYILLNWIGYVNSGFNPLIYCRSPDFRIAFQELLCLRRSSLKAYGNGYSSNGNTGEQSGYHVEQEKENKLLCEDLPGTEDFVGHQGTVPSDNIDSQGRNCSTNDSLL
T5 sequence (P63165 whole entry): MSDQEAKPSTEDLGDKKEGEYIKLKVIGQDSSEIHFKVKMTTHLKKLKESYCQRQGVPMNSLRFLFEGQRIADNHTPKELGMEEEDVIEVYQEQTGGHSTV
Sequence of Arf-GAP with SH3 domain, ANK repeat and PH domain-containing protein 1 (Q9ULH1 whole entry, the tested form may be a part): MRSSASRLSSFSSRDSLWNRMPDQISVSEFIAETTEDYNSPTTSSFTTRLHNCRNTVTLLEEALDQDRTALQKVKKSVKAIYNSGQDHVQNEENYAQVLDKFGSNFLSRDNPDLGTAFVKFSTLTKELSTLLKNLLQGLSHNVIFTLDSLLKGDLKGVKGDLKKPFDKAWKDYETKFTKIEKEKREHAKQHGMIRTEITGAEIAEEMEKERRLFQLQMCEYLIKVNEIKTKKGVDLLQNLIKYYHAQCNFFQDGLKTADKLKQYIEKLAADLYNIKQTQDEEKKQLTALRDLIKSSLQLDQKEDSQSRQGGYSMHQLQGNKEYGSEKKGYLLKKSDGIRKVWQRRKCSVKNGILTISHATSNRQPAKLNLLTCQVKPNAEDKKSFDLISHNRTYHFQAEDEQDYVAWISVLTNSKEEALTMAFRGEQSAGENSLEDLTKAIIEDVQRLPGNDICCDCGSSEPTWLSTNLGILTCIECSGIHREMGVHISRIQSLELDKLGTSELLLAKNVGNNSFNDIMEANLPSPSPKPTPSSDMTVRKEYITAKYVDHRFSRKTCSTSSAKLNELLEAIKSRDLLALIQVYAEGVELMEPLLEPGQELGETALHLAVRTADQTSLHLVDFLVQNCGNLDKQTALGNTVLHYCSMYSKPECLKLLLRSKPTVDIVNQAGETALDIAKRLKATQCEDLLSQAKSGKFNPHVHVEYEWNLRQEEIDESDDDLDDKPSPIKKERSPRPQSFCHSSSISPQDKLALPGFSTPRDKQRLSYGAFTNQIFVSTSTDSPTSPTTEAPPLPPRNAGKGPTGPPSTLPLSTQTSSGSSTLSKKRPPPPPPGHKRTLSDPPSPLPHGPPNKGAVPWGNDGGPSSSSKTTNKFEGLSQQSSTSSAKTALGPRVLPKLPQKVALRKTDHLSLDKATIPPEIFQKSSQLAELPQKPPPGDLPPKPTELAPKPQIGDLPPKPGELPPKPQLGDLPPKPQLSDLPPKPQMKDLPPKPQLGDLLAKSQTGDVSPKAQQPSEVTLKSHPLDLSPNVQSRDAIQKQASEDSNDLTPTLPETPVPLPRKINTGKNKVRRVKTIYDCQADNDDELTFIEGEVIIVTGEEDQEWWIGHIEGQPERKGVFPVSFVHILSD
Sequence of ADP-ribosylation factor GTPase-activating protein 1 (Q62848 whole entry): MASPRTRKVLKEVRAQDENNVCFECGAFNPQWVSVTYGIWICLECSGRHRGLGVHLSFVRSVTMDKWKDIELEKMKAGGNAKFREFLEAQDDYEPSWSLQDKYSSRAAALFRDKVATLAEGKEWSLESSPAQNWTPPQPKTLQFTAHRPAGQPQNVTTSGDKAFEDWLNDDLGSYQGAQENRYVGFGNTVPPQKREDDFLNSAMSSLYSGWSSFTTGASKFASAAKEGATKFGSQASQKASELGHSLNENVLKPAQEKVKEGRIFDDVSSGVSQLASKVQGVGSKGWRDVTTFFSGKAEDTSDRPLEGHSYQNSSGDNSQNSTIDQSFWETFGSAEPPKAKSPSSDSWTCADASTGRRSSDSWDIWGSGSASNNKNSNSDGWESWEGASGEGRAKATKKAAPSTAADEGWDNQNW
Sequence of Tyrosine-protein phosphatase non-receptor type 11 (Q06124 whole entry, the tested form may be a part): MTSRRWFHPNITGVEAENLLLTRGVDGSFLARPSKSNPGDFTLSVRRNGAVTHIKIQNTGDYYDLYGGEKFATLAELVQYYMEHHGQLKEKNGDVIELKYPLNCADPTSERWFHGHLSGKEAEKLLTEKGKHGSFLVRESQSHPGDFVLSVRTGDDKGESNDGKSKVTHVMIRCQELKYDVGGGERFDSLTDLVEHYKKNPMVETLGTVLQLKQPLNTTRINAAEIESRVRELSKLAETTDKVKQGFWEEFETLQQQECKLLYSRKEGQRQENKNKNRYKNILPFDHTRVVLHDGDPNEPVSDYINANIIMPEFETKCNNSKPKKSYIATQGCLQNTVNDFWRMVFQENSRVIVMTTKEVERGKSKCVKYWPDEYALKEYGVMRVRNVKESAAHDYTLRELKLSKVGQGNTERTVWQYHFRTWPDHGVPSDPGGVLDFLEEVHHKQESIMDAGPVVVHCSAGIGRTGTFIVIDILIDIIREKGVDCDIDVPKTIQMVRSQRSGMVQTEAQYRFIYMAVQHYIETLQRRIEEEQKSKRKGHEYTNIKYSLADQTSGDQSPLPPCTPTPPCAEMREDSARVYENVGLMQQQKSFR
Sequence of Dual specificity protein phosphatase 3 (P51452 whole entry): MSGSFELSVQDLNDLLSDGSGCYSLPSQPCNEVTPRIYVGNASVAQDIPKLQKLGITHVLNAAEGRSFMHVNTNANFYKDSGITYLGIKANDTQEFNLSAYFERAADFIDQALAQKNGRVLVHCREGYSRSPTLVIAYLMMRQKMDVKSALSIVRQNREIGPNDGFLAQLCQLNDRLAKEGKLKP
Sequence of Tyrosine-protein phosphatase non-receptor type 5 (P54829 whole entry): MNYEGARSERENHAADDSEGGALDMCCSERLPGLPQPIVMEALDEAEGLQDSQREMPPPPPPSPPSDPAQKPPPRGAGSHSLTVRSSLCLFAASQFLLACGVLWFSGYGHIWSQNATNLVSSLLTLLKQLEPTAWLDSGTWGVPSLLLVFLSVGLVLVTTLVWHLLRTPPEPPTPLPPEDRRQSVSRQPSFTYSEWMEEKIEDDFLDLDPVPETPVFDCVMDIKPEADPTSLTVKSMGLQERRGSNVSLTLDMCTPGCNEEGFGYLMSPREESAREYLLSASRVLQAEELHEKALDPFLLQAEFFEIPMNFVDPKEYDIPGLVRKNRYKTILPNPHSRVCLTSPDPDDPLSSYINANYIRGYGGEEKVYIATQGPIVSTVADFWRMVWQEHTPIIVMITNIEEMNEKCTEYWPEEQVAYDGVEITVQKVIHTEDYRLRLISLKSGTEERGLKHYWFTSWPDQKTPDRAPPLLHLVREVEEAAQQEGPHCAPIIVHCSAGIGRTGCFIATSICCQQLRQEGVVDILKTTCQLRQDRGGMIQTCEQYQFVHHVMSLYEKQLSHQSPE

Q: Which results are given for Cc1ncc(CN2CCCC(C(=O)Nc3ccc(-c4cccc(F)c4)cc3)C2)s1 (stereo not given)?
A: EC50 [1]: 0.731 µM (active); AC50 [2]: 6.84 µM (active); EC50 [3]: 3.37 µM (active)

Q: Which AC50 [4] does the source give for C[C@@H](NC(=O)C[C@@H]1CC[C@@H]2[C@H](COC[C@H](O)CN2Cc2cc(F)ccc2F)O1)c1ccccc1 here?
A: Its AC50 is 5.05 µM (active).

Q: What about the AC50 [5] of the same compound?
A: The AC50 was 5.05 µM (active).

Q: And the AC50 [6]?
A: Its AC50 is > 52 µM (inactive).

Q: Which EC50 [7] does the source give for O=C(CNc1cccc2ccccc12)N/N=C/c1ccc([N+](=O)[O-])cc1 here?
A: Its EC50 is > 260 µM (inactive).

Q: What about the IC50 [8] of the same compound?
A: The IC50 was 80 µM (inactive).

Q: What about the IC50 [9] of the same compound?
A: Its IC50 is 44.3 µM (active).

Q: With CC1=CC2=NC(=O)/C(=C\c3ccc(-c4cccc(Cl)c4)o3)C(=N)N2O1 as the compound, how does the IC50 [10] read?
A: Its IC50 is 13.3 µM (inactive).

Q: And the IC50 [11]?
A: The IC50 was 2.03 µM (active).

Q: Which results are given for CN(C)c1ccc(C(=O)OCC(=O)Nc2ccc(S(N)(=O)=O)cc2)cc1?
A: IC50 [12]: 67.7 µM (inactive); IC50 [13]: 7.3 µM (active); IC50 [14]: > 66.6 µM (inactive); EC50 [15]: > 53 µM (inactive); IC50 [16]: > 47.1 µM (inactive); IC50 [17]: 12.8 µM (active); IC50 [18]: 6.56 µM (active); IC50 [19]: 4.13 µM (active); IC50 [20]: 8.63 µM (active)
